Assay results from patent EP0146258A2, “Glycerol derivatives” (ONO PHARMACEUTICAL CO., LTD., priority 1983, dated 1985).

System: mice
Experiment: Acute toxicity by intravenous administration
Assay type: in vivo
Conditions: intravenously administered to tail vein in five mice at the dose of 50 mg/kg
Experimental: On the other hand, it was confirmed that the acute toxicity of all extent of the compounds of the present invention was more than 50 mg/kg by intravenous administration. Therefore, glycerol derivatives of the present invention may be considered to be sufficiently safe and suitable for medical use. For example, the mortality (dead/used) in glycerol derivatives of the present invention, i.e. compounds prepared in Example 1(h) and 11(a) was 0/5 and 0/5, respectively, when each glycerol compound was intravenously administered to tail vein in five mice at the dose of 50 mg/kg.

Row | SMILES | mortality (dead/used)
1 | CCCCCCCCCCCCCCCCOCC(COCCCCCCC[N+]1(C)CCCC1)NC(C)=O (centres unmarked) [11(a)] | 0/5
2 | CCCCCCCCCCCCCCCCOCC(COCCCCCCC[n+]1ccsc1)OCC (centres unmarked) [Example 1(h)] | 0/5
